Literature values as cited in PubChem BioAssay AID1259409 (Chemical Carcinogenesis Research Information System (CCRIS), 2018).

System: rodent chemically induced tumor inhibition, incidence and multiplicity
Test: CCRIS tumor inhibitor studies

## COc1ccc(-c2cc(=S)ss2)cc1
Carcinogen: 7,12-DIMETHYLBENZ[A]ANTHRACENE, 57-97-6, Dose [Inhibitor]: 0, 200 PPM IN DIET FOR DURATION OF STUDY BEGINNING 1 WK PRIOR TO CARCINOGEN DOSE (STUDY DURATION: 107 D), Route [Inhibitor]: ORAL, Species: RAT, Strain/Sex: SPRAGUE-DAWLEY/FEMALE, Target Tissue: Type of Lesion: MAMMARY GLAND: ADENOCARCINOMA, Dose [Carcinogen]: 12 MG ONCE, Promoter: NONE USED
  tumour outcome (control, treated, inhibition, significance): 80%, 75%, 6%, not significant
Carcinogen: 7,12-DIMETHYLBENZ[A]ANTHRACENE, 57-97-6, Dose [Inhibitor]: 0, 400 PPM IN DIET FOR DURATION OF STUDY BEGINNING 1 WK PRIOR TO CARCINOGEN DOSE (STUDY DURATION: 107 D), Route [Inhibitor]: ORAL, Species: RAT, Strain/Sex: SPRAGUE-DAWLEY/FEMALE, Target Tissue: Type of Lesion: MAMMARY GLAND: ADENOCARCINOMA, Dose [Carcinogen]: 12 MG ONCE, Promoter: NONE USED
  tumour outcome (control, treated, inhibition, significance): 80%, 85%, -6%, not significant
Carcinogen: AZOXYMETHANE, 25843-45-2, Dose [Inhibitor]: 0, 100 PPM IN DIET BEGINNING 2 WK PRIOR TO CARCINOGEN TREATMENT AND CONTINUING FOR DURATION OF STUDY (STUDY DURATION: 56, Route [Inhibitor]: ORAL, Species: RAT, Strain/Sex: F344/MALE, Target Tissue: Type of Lesion: COLON: INVASIVE ADENOCARCINOMA, Dose [Carcinogen]: 15 MG/KG 1/WK FOR 2 WK, Promoter: NONE USED
  tumour outcome (control, treated, inhibition, significance): 34%, 11%, 68%, p<0.05
Carcinogen: AZOXYMETHANE, 25843-45-2, Dose [Inhibitor]: 0, 100 PPM IN DIET BEGINNING 2 WK PRIOR TO CARCINOGEN TREATMENT AND CONTINUING FOR DURATION OF STUDY (STUDY DURATION: 56, Route [Inhibitor]: ORAL, Species: RAT, Strain/Sex: F344/MALE, Target Tissue: Type of Lesion: COLON: NONINVASIVE ADENOCARCINOMA, Dose [Carcinogen]: 15 MG/KG 1/WK FOR 2 WK, Promoter: NONE USED
  tumour outcome (control, treated, inhibition, significance): 53%, 47%, 11%, not significant
Carcinogen: AZOXYMETHANE, 25843-45-2, Dose [Inhibitor]: 0, 200 PPM IN DIET BEGINNING 2 WK PRIOR TO CARCINOGEN TREATMENT AND CONTINUING FOR DURATION OF STUDY (STUDY DURATION: 56, Route [Inhibitor]: ORAL, Species: RAT, Strain/Sex: F344/MALE, Target Tissue: Type of Lesion: COLON: INVASIVE ADENOCARCINOMA, Dose [Carcinogen]: 15 MG/KG 1/WK FOR 2 WK, Promoter: NONE USED
  tumour outcome (control, treated, inhibition, significance): 34%, 8%, 76%, p<0.01
Carcinogen: AZOXYMETHANE, 25843-45-2, Dose [Inhibitor]: 0, 200 PPM IN DIET BEGINNING 2 WK PRIOR TO CARCINOGEN TREATMENT AND CONTINUING FOR DURATION OF STUDY (STUDY DURATION: 56, Route [Inhibitor]: ORAL, Species: RAT, Strain/Sex: F344/MALE, Target Tissue: Type of Lesion: COLON: NONINVASIVE ADENOCARCINOMA, Dose [Carcinogen]: 15 MG/KG 1/WK FOR 2 WK, Promoter: NONE USED
  tumour outcome (control, treated, inhibition, significance): 53%, 30%, 43%, p<0.05

## CC1CCC(=O)O1 (configuration not stated)
Carcinogen: BENZO[A]PYRENE, 50-32-8, Dose [Inhibitor]: 0.034 MMOL/G IN DIET FOR 5 WK BEGINNING 1 WK PRIOR TO CARCINOGEN DOSE (STUDY DURATION: 21 WK), Route [Inhibitor]: ORAL, Species: MOUSE, Strain/Sex: ICR/FEMALE, Target Tissue: Type of Lesion: FORESTOMACH: TUMOR, Dose [Carcinogen]: 1 MG IN 0.2 ML CORN OIL 2/WK FOR 4 WK, Promoter: NONE USED
  tumour outcome (control, treated, inhibition, significance): (95%, 95%, 0%, not significant

## C[C@@H]1O[C@@H](OC[C@H]2O[C@@H](Oc3c(-c4ccc(O)c(O)c4)oc4cc(O)cc(O)c4c3=O)[C@H](O)[C@@H](O)[C@@H]2O)[C@H](O)[C@H](O)[C@H]1O
Carcinogen: 7,12-DIMETHYLBENZ[A]ANTHRACENE, 57-97-6, Dose [Inhibitor]: 0, 0.2 ML OF A 1% SOLUTION 1/D FOR 2 WK APPLIED 5 MIN POST EACH CARCINOGEN DOSE THEN 1/D FOR 4 WK DURING PROMOTION STAGE, Route [Inhibitor]: DERMAL, Species: MOUSE, Strain/Sex: SWISS/MALE, Target Tissue: Type of Lesion: SKIN: PAPILLOMA, Dose [Carcinogen]: 0.2 ML OF A 0.24% SOLUTION IN DMSO 1/D FOR 2 WK, Promoter: CROTON OIL, 8001-28-3
  tumour outcome (control, treated, inhibition, significance): 23/23 (100%), 14/24 (58%), 42%, not calculated
Carcinogen: 7,12-DIMETHYLBENZ[A]ANTHRACENE, 57-97-6, Dose [Inhibitor]: 0, 0.2 ML OF A 1% SOLUTION 1/D FOR 2 WK APPLIED 5 MIN PRIOR TO EACH CARCINOGEN DOSE (STUDY DURATION: 20 WK), Route [Inhibitor]: DERMAL, Species: MOUSE, Strain/Sex: SWISS/MALE, Target Tissue: Type of Lesion: SKIN: PAPILLOMA, Dose [Carcinogen]: 0.2 ML OF A 0.24% SOLUTION IN DMSO 1/D FOR 2 WK, Promoter: CROTON OIL, 8001-28-3
  tumour outcome (control, treated, inhibition, significance): 23/23 (100%), 21/23 (91%), 9%, not calculated
Carcinogen: AZOXYMETHANE, 25843-45-2, Dose [Inhibitor]: 0, 1% IN DIET FOR DURATION OF STUDY (STUDY DURATION: 48 WK), Route [Inhibitor]: ORAL, Species: MOUSE, Strain/Sex: CF-1/FEMALE, Target Tissue: Type of Lesion: COLON: TUMOR, Dose [Carcinogen]: 10 MG/KG BW 3 TIMES, Promoter: NONE USED
  tumour outcome (control, treated, inhibition, significance): 8/32 (25%), 9/35 (26%), -4%, not significant
Carcinogen: AZOXYMETHANE, 25843-45-2, Dose [Inhibitor]: 0, 4% IN DIET FOR DURATION OF STUDY (STUDY DURATION: 48 WK), Route [Inhibitor]: ORAL, Species: MOUSE, Strain/Sex: CF-1/FEMALE, Target Tissue: Type of Lesion: COLON: TUMOR, Dose [Carcinogen]: 10 MG/KG BW 3 TIMES, Promoter: NONE USED
  tumour outcome (control, treated, inhibition, significance): 8/32 (25%), 3/31 (10%), 60%, not significant

## CC1(C)CC[C@]2(CO)CC[C@]3(C)C(=CC[C@@H]4[C@@]5(C)CC[C@H](O)[C@@](C)(CO)[C@@H]5CC[C@]43C)[C@H]2C1
Carcinogen: 7,12-DIMETHYLBENZ[A]ANTHRACENE, 57-97-6, Dose [Inhibitor]: 81 NMOL IN 100 µL ACETONE/DMSO (99:1) APPLIED 40 MIN PRIOR TO EACH PROMOTER DOSE (STUDY DURATION: 18 WK), Route [Inhibitor]: DERMAL, Species: MOUSE, Strain/Sex: ICR, Target Tissue: Type of Lesion: SKIN: CARCINOMA, Dose [Carcinogen]: 100 UG ONCE, Promoter: 12-O-TETRADECANOYLPHORBOL-13-ACETATE, 16561-29-8
  tumour outcome (control, treated, inhibition, significance): 100%, 20%, 80%, not calculated
